Experimental data as given in article PMC3807862 (Journal of medicinal chemistry, 2013).
Blank lines part the entries; values can stand above or below the molecule they belong to.

Key:
human plasma thrombin = human plasma thrombin (Homo sapiens, UniProt P00734); experiment: Thrombin inhibition; format: biochemical
[1] = Spontaneous hydrolysis in aqueous buffer; format: physicochemical; details: 20 μM
human urine urokinase = human urine urokinase (Homo sapiens, UniProt P00749); experiment: Urokinase inhibition; format: biochemical
HNE = target: T1, HNE (Homo sapiens, UniProt P08246); experiment: HNE inhibition over time; format: biochemical; details: for period of maximal HNE inhibition (during the first x h): 5 μM compound; for time to recovery of HNE activity after treatment: up to 5 μM compound
T1 sequence (P08246 30-267): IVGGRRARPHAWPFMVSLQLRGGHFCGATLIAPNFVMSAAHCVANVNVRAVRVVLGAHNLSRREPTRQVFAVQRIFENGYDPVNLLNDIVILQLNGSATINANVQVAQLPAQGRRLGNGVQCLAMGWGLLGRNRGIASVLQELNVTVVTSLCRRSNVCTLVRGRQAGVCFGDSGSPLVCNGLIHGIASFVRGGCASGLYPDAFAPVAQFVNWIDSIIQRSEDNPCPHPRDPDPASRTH

[2] = test system: human pancreas chymotrypsin; experiment: Chymotrypsin inhibition; format: biochemical
[3] = target: T2, Human neutrophil elastase (HNE) (Homo sapiens, UniProt P08246); experiment: HNE inhibition assay; format: biochemical
T2 sequence (P08246 30-267): T1 sequence (P08246 30-267)

human plasma kallikrein = human plasma kallikrein (Homo sapiens, UniProt P03952); experiment: Kallikrein inhibition; format: biochemical
human plasma kallikrein, sequence (P03952 20-638): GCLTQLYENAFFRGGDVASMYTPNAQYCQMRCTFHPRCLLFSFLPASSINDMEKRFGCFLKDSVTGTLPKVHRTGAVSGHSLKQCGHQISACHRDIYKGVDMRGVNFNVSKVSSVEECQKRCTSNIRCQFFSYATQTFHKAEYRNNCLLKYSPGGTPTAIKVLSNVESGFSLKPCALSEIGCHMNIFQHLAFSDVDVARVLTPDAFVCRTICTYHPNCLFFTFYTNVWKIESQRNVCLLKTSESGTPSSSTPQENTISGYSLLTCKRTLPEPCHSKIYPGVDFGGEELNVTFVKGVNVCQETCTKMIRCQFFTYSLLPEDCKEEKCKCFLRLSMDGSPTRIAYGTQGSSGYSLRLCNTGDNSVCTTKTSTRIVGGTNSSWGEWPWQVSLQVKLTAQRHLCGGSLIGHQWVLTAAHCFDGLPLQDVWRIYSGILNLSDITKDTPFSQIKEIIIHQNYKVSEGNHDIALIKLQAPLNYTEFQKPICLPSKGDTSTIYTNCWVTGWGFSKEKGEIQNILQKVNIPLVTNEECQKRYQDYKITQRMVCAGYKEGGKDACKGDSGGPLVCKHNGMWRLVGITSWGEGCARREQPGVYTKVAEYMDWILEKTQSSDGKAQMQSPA

thrombin inhibition (in words) (human plasma thrombin): at micromolar concentrations | time after which compound was hydrolyzed almost completely [1]: 35 min | urokinase inhibition (in words) (human urine urokinase): at micromolar concentrations
Compound: Cc1cccc(C(=O)n2nc(C#N)c3ccccc32)c1 [Compound 5b, 1-(3-Methylbenzoyl)-1H-indazole-3-carbonitrile]

period of maximal HNE inhibition (during the first x h) (HNE): 5 h | IC50 [3]: ~10 nM | urokinase inhibition (in words) (human urine urokinase): no inhibitory activity
Compound: CCOC(=O)c1nn(C(=O)c2cccc(C)c2)c2ccc(NC(=O)C3CC3)cc12 [Compound 20f, 5-(Cyclopropanecarbonylamino)-1-(3-methylbenzoyl)-1H-indazole-3-carboxylic Acid Ethyl Ester]
chymotrypsin inhibition (in words) [2]: lowest activity for this enzyme

increase of HNE inhibitory activity compared to the reference compounds A and F [3]: 2-3 fold
Compound: CCOC(=O)c1nn(C(=O)c2cccc(C)c2)c2ccc(OC(F)(F)F)cc12 [Compound 31g, 1-(3-Methylbenzoyl)-5-trifluoromethoxy-1H-indazole-3-carboxylic Acid Ethyl Ester]

time to recovery of HNE activity after treatment (HNE): 1 to 2 h
Compound: CCOC(=O)c1nn(C(=O)c2ccsc2)c2ccc([N+](=O)[O-])cc12 [Compound 14h, 5-Nitro-1-(thiophene-3-carbonyl)-1H-indazole-3-carboxylic Acid Ethyl Ester]

period of maximal HNE inhibition (during the first x h) (HNE): 4 h
Compound: COC(=O)c1nn(C(=O)c2cccc(C)c2)c2cc([N+](=O)[O-])ccc12 [Compound 15, 1-(3-Methylbenzoyl)-6-nitro-1H-indazole-3-carboxylic Acid Methyl Ester]

increase of HNE inhibitory activity compared to the reference compounds A and F [3]: 2-3 fold
Compound: CCOC(=O)c1nn(C(=O)c2ccccc2)c2ccc(OC)cc12 [Compound 31d, 1-Benzoyl-5-methoxy-1H-indazole-3-carboxylic Acid Ethyl Ester]

HNE inhibitory activity (in words) [3]: inactive
Compound: COC(=O)c1nn(C(=O)c2cccc(C)c2)c2c([N+](=O)[O-])cccc12 [Compound 16, 1-(3-Methylbenzoyl)-7-nitro-1H-indazole-3-carboxylic Acid Methyl Ester]

period of maximal HNE inhibition (during the first x h) (HNE): 4 h
Compound: COC(=O)c1nn(C(=O)c2cccc(C)c2)c2ccc([N+](=O)[O-])cc12 [Compound 14b, 1-(3-Methylbenzoyl)-5-nitro-1H-indazole-3-carboxylic Acid Methyl Ester]

period of maximal HNE inhibition (during the first x h) (HNE): 4 h
Compound: CCOC(=O)c1nn(C(=O)c2cccc(C)c2)c2ccc(NC(C)=O)cc12 [Compound 20a, 5-Acetylamino-1-(3-methylbenzoyl)-1H-indazole-3-carboxylic Acid Ethyl Ester]

time to recovery of HNE activity after treatment (HNE): 1 to 2 h | kallikrein inhibition (in words) (human plasma kallikrein): inhibited kallikrein
Compound: COC(=O)c1nn(C(=O)c2ccccc2)c2ccc([N+](=O)[O-])cc12 [Compound 14a, 1-Benzoyl-5-nitro-1H-indazole-3-carboxylic Acid Methyl Ester]
